The assay has as its target T1, ASIC1a (Homo sapiens, UniProt P78348).
T1 sequence (P78348 1-528): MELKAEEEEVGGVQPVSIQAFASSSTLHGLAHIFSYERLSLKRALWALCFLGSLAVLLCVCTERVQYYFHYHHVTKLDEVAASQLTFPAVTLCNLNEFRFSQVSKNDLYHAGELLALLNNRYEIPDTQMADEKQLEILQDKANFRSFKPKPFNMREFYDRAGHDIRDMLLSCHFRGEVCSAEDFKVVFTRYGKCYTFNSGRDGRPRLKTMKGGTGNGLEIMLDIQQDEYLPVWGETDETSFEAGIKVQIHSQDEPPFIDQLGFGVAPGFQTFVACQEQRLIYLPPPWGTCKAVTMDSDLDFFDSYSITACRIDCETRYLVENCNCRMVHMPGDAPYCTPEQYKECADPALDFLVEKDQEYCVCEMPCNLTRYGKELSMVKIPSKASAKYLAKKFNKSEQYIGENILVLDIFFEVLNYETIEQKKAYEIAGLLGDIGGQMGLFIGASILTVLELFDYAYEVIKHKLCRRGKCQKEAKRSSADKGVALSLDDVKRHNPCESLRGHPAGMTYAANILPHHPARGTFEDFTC
The experiment in a line: Two-electrode voltage clamp of acid-induced currents in Xenopus laevis oocytes. Particulars: 50 μM, Xenopus oocytes; read-out: % inh. at 50 μM (Xo). Details: expressed in transfected cells; host or cells: Xenopus laevis oocytes, nuclear microinjection of an expression vector such as pCDNA3. It is filed as cell-based. Here is the method:
Screening and Bioanalysis of ASIC Antagonists in Xenopus laevis oocytes
This example describes the in vitro assessment of the activity of the compounds of the present invention.
Two-electrode voltage clamp electrophysiological assays in Xenopus laevis oocytes expressing gated ion channels are performed as follows:
Oocytes are surgically removed from adult Xenopus laevis and treated for 2 h at room temperature with 1 mg/ml type I collagenase (Sigma) in Barth's solution under mild agitation. Selected oocytes at stage IV-V are defolliculated manually before nuclear microinjection of 2.5-5 ng of a suitable expression vector, such as pCDNA3, comprising the nucleotide sequence encoding a gated ion channel subunit protein. In such an experiment, the oocytes express homomultimeric proton-gated ion channels on their surface. In an alternate experiment, one, two, three or more vectors comprising the coding sequences for distinct gated ion channel subunits are co-injected in the oocyte nuclei. In the latter case, oocytes express heteromultimeric proton-gated ion channels. For example, ASIC2a and/or ASIC3 subunits in pcDNA3 vector are co-injected at a 1:1 cDNA ratio. After 2-4 days of expression at 19° C. in Barth's solution containing […] gentamicin and 1.8 mM CaCl2, gated ion channels are activated by applying an acidic solution (pH<7) and currents are recorded in a two electrode voltage-clamp configuration, using an OC-725B amplifier (Warner Instruments). Currents are acquired and digitized at 500 Hz on an Apple Imac G3 computer with an A/D NB-MIO-16XL interface (National Instruments) and recorded traces are post-filtered at 100 Hz in Axograph (Axon Instruments) (Neher, E. and Sakmann, B. (1976) Nature 260:799-802). Once impaled with the microelectrodes, oocytes are continuously superfused at 10-12 ml/min with a modified Ringer's solution containing 97 mM NaCl, 2 mM KCl, 1.8 mM CaCl2, and 10 mM HEPES brought to pH 7.4 with NaOH (Control Ringer). Test Ringer solution is prepared by replacing HEPES with MES and adjusting the pH to the desired acidic value. Compounds of the present invention are prepared in both the Control and Test Ringer solutions and applied to oocytes at room temperature through a computer-controlled switching valve system. Osmolarity of all solutions is adjusted to 235 mOsm with choline chloride. Similarly, recordings can also be acquired in an automated multichannel oocytes system as the OpusExpress™ (Molecular Devices, Sunnyvale, USA).
FIGS. 1A and 2A illustrate the inhibitory effects of Compounds 12 and 44 on acid-induced activation of recombinant homomeric hASIC1a channels. FIGS. 1A and 2A show the dose-dependent inhibition of the acid-induced hASIC1a currents recorded from Xenopus laevis oocytes using the two-electrode voltage clamp method (as described in this example) in the absence or presence of increasing concentration of the compounds.

Molecules are shown by their SMILES.

These results are taken from patent US20080004282A1, “Compositions and methods for modulating gated ion channels” (PainCeptor Pharma Corporation, priority 2006, published 2008).

In the case of `CCN1CCc2c(-c3cc(F)ccc3OC)ccc(NCC(=O)OC)c2C1` [Compound 2, [2-Ethyl-5-(5-fluoro-2-methoxy-phenyl)-1,2,3,4-tetrahydro-isoquinolin-8-ylamino]-acetic acid methyl ester], the inhibition at 50 µM was less than 20%.
Consider `COc1ccc(F)cc1-c1cc(-c2noc(=O)[nH]2)c(N)c2c1CCN(C)C2` [Compound 5, 3-[8-Amino-5-(5-fluoro-2-methoxy-phenyl)-2-methyl-1,2,3,4-tetrahydro-isoquinolin-7-yl]-4H-[1,2,4]oxadiazol-5-one], for which the inhibition at 50 µM was less than 20%.
The value for `CCN1CCc2c(-c3ccccc3)cc(C#N)c(NC(C)=O)c2C1` [Compound 8, N-(7-Cyano-2-ethyl-5-phenyl-1,2,3,4-tetrahydro-isoquinolin-8-yl)-acetamide] was 20 to 30%.
Consider `CCN1CCc2c(-c3ccccc3)cc(C#N)c(NS(C)(=O)=O)c2C1` [Compound 9, N-(7-Cyano-2-ethyl-5-phenyl-1,2,3,4-tetrahydro-isoquinolin-8-yl)-methanesulfonamide], for which the inhibition at 50 µM lay in the range of 15 to 25%.
Turning to `CCN1CCc2c(-c3ccccc3)cc(C#N)c(NC(=O)CC(=O)OC)c2C1` [Compound 14, N-(7-Cyano-2-ethyl-5-phenyl-1,2,3,4-tetrahydro-isoquinolin-8-yl)-malonamic acid methyl ester], the inhibition at 50 µM lay within 20 to 30%.
Turning to `CCN1CCc2c(-c3cc(F)ccc3OC)ccc(N3C(=O)CNC3=O)c2C1` [Compound 22], the inhibition at 50 µM is less than 20%.
For the compound `CCN1CCc2c(-c3cc(F)ccc3OC)ccc(NC(N)=O)c2C1` [Compound 23], the inhibition at 50 µM was 20 to 30%.
The value for `CCOC(=O)CNC(=O)Nc1ccc(-c2cc(F)ccc2OC)c2c1CN(CC)CC2` [Compound 24] was 20 to 30%; that for `CCN1CCc2c(-c3cc(F)ccc3OC)ccc(N3CC(=O)NC3=O)c2C1` [Compound 25] was more than 40%; that for `CCN1CCc2c(-c3cc(F)ccc3OC)ccc(NC(=O)NC(=O)N3C(=O)CN(c4ccc(-c5cc(F)ccc5OC)c5c4CN(CC)CC5)C3=O)c2C1` [Compound 26] was more than 30%.
Regarding `CCN1CCc2c(-c3cc(F)ccc3OC)ccc(NC=O)c2C1` [Compound 27], the inhibition at 50 µM is less than 20%.
Turning to `CCN1CCc2c(cc(N3C(=O)CNC3=O)cc2-c2cc(F)ccc2OC)C1` [Compound 28], the inhibition at 50 µM is 20 to 30%.
Consider `CC(=O)N1CCc2c(-c3ccccc3)cc(C#N)c(N)c2C1` [Compound 29], for which the inhibition at 50 µM fell in the range of 20 to 30%.
Turning to `N#Cc1cc(-c2ccccc2)c2ccncc2c1N` [Compound 30], the inhibition at 50 µM was 20 to 30%.
Take `Cc1cc2c(N)c(C#N)cc(-c3ccccc3)c2cn1` [Compound 31]: the inhibition at 50 µM was more than 30%.
With `Cc1cc2c(N)c(-c3ccccc3)cc(C#N)c2cn1` [Compound 32], the inhibition at 50 µM is more than 30%.
To `CCN1CCc2c(-c3ccccc3)cc(/C(N)=N/O)c(N)c2C1` [Compound 33] belongs more than 30%.
For the compound `CCN1CCc2c(-c3cc(F)ccc3OC)ccc(NC)c2C1` [Compound 34], the inhibition at 50 µM was more than 40%.
Take `CCN1CCc2c(-c3ccccc3)ccc(N)c2C1` [Compound 35]: the inhibition at 50 µM fell in the range of 20 to 30%.
With `CCN1CCc2c(-c3ccccc3)cc(-c3ccccn3)c(N)c2C1` [Compound 36], the inhibition at 50 µM was less than 20%.
Regarding `CCN1CCc2c(-c3ccccc3)cc(-c3cnccn3)c(N)c2C1` [Compound 37], the inhibition at 50 µM was more than 30%.
For the compound `CCN1CCc2c(-c3ccccc3)cc(-c3cnn(C)c3N)c(N)c2C1` [Compound 38], the inhibition at 50 µM was more than 30%.
On to `CCN1CCc2c(-c3ccccc3)cc(-c3ccc(C)nn3)c(N)c2C1` [Compound 39], for which the inhibition at 50 µM was in the range of 20 to 30%.
To `CCN1CCc2c(-c3ccccc3)cc(-c3cccc(C)n3)c(N)c2C1` [Compound 40] belongs more than 30%; to `CCN1CCc2c(cc(C#N)cc2-c2ccccc2)C1` [Compound 41], more than 30%.
To `CCN1CCc2c(-c3ccccc3)cc(C#N)c(O)c2C1` [Compound 42] belongs 20 to 30%.
